Experimental data published in patent US4059700A, “Dermal toxicity of solid compositions containing a montmorillonite type of clay and an organophosphorus pesticide” (priority 1976, dated 1977).

Legend:
[1] = test system: insects and nematodes; conditions: food and fodder crops; cited from earlier work
[2] = test system: mammals; conditions: ingestion, inhalation or dermal absorption; cited from earlier work
[3] = Dermal toxicity of granular compositions (Example 2, Table I); conditions: rabbit, in vivo, topical or ocular, male albino rabbits, 24 h contact, 14 days observation, read-out: LD50 in mg/kg Body Weight
Excerpt: Dermal toxicity of granular compositions of the present invention as compared to conventional granular compositions containing the same pesticide, using male albino rabbits as test animal.
1. Five male albino rabbits weighing approximately 2.2 to 3.5 kilograms are selected for each dosage level. The hair is shaved from the entire trunk.
2. Saran tubing or "Vinylite" film, VU 1900, 12 inches wide, 0.04 millimeters thick and of suitable length to fit around the rabbit.
3. One felt cloth bandage measuring approximately 9×18 inches.
4. Four pieces of 11/2 inches adhesive tape approximately 14 inches long.
1. The granular composition to be tested is placed in the center of the plastic film and is moistened with water.
2. The rabbits underside is moistened with water and the animals placed belly down on the material. The plastic film is then bought up and around the animal and secured at each end with strips of adhesive tape.
3. The felt cloth is then placed under the belly and brought up and around the animal and secured to the body with the remaining two strips of adhesive tape.
1. The animal is placed on the plastic film and is wrapped and the film secured with adhesive tape.
2. The test material is then injected under the plastic with an appropriate size needle and syringe.
3. […]
By the above procedure the dermal toxicity of the granular compositions prepared in Example 1 is determined. […]

CCOP(=S)(OCC)SCSC(C)(C)C
control of a broad spectrum of insects and nematodes [1]: highly effective
toxicity to mammals when introduced into the mammalian circulatory system [2]: extremely toxic to mammals
LD50 at 336 h [3]: 1 to 1.4 mg/kg
